Results on 12 compounds are retold here after publication PMC9455918, “Quinolizidines as Novel SARS-CoV-2 Entry Inhibitors” (International Journal of Molecular Sciences, 2022).

Test [1] concerns Omicron BA.1 spike-pseudotyped virus. The test is described as follows: microbe, parasite or virus in culture. It counts as cell-based, SARS-CoV-2.
In test [2] the test system is D614G spike-pseudotyped virus. It counts as cell-based, SARS-CoV-2.
Where [3] appears, read: 293T-ACE2 cells, 3 days, luciferase reporter, mean ± SD of three tests, Inactive = CC50/IC50 ratio < 5.

Values joined by “and” are separate entries in the source; they are usually repeats but may differ in a detail not shown here. Identical values can stand only once. Like-named read-outs stand apart in the source and are kept apart here.

What is called IC50 is the concentration at which inhibition is half-maximal. `CCOC(=O)[C@H]1O[C@@H]1C(=O)N[C@@H](CC(C)C)C(=O)NCCC(C)C` [Compound E64D, E64D, reference compound]: the IC50 was 0.36 ± 0.076 µM in test [1] (read-out: IC50, Omicron BA.1 spike-pseudotyped virus) and 0.48 ± 0.11 µM in test [2] (setting [3]).
Consider `C1=C2CCCN(CCCCNCc3ccccc3)C2C2CC1C1CCCCN1C2` (centres unmarked) [Compound 5], for which the “Fold less sensitive, Omicron variants” value in test [1] is “approximately 1.5 fold”. Further, the IC50 in test [1] (Severe acute respiratory syndrome coronavirus 2, 293T/ACE2, read-out: IC50, Omicron BA.1 spike-pseudotyped virus) stood at 0.76 ± 0.22 µM. Moreover, in test [2], the “Fold more potent than aloperine against D614G spike-pseudotyped virus” value was “approximately 22 fold”; the “Fold more potent than chloroquine against D614G spike-pseudotyped virus” value is given as approximately 5 fold; the IC50 is 0.5 µM and 0.53 µM. Moreover, the “IC50, D614G spike-pseudotyped virus” value in test [2] (setting [3]) is reported as “sub-µM potency”.
With `Fc1ccc(CNCCCCN2CCCC3=CC4CC(CN5CCCCC45)C32)cc1` (centres unmarked) [Compound 9], the IC50 in test [2] stood at 0.61 ± 0.18 µM.
Compound `C1=C2CCCN(CCCCCNCc3ccccc3)C2C2CC1C1CCCCN1C2` (centres unmarked) [Compound 4] displayed an IC50 in test [2] of 0.86 ± 1.5 µM. Moreover, the “IC50, D614G spike-pseudotyped virus” value in test [2] (setting [3]) is “sub-µM potency”.
In test [2], `CC(C)(C)c1ccc(C(=O)NCCCCCCN2CCCC3=CC4CC(CN5CCCCC45)C32)cc1` (centres unmarked) [Compound 7] gave a half-maximal inhibitory concentration (IC50) of 3.7 ± 0.87 µM.
In the case of `O=C(Cc1ccc(S(=O)(=O)C(F)(F)F)cc1)NCCCCN1CCCC2=CC3CC(CN4CCCCC34)C21` (centres unmarked) [Compound 3], the IC50 in test [2] stood at 3.8 ± 0.68 µM.
`O=C(NCCCCCCCC(=O)N1CCCC2=CC3CC(CN4CCCCC34)C21)c1ccc(OC(F)(F)F)cc1` (centres unmarked) [Compound 8]: in test [2], the IC50 amounted to 17.5 ± 2.3 µM. Moreover, in test [2] (setting [3]), the “IC50, D614G spike-pseudotyped virus” value is “weak inhibitor”.
Take `O=C(NCCN1CCCC2=CC3CC(CN4CCCCC34)C21)c1ccccc1F` (centres unmarked) [Compound 2]: the “IC50, D614G spike-pseudotyped virus” value in test [2] is listed as “Inactive ^8”.
Compound `COc1ccc(C(=O)NCCCCN2CCCC3=CC4CC(CN5CCCCC45)C32)cc1` (centres unmarked) [Compound 6] showed an IC50 in test [2] of 11.9 ± 2.1 µM.
As for `O=C(NCCCCCCN1CCCC2CC3CC(CN4CCCCC34)C21)c1c(F)cc(Br)cc1F` (centres unmarked) [Compound 1], in test [2], the IC50 was found to be 4.7 ± 0.76 µM.
On the same count and under the same terms, the figure for `C1=C2CCCN[C@H]2[C@@H]2C[C@H]1[C@H]1CCCCN1C2` [Aloperine, aloperine, reference compound] is 11.5 ± 2.3 µM; for `CCN(CC)CCCC(C)Nc1ccnc2cc(Cl)ccc12` (centres unmarked) [Chloroquine diphosphate, reference compound] it is 2.3 ± 3.6 µM.
